Assays:
[1] = test system: U2OS cells expressing Per2-luciferase; test: Circadian rhythm of U2OS cells expressing Per2-luciferase; assay type: cell-based, human; settings: for Phenotype: phase of the circadian rhythm / Phenotype: Period shortening: Cay10576 15 μM, dinaciclib 10 nM, Cdk/Crk inhibitor 10 nM, n=4 (FIG. 1b, 1c); for Phenotype: Period lengthening: IKBKB inhibitors, all at 10 μM, n=5 (FIG. 1a)
Procedure: (a) IKBKB inhibitors. The concentration of all the inhibitors was 10 μM, n=5. (b) IKBKE inhibitors.
The above experiments were conducted with the drug added to the culture media from the beginning.

[2] = test system: SCN explants; test: Circadian rhythm of SCN explants from Per2::Luciferase mice; assay type: cell-based, mouse; settings: applied at CT12; p<0.01, n=8
From the text: U2OS cells are just cultured cells, while the SCN is the master clock in mammals. We dissected the SCN from mice expressing the Per2::Luciferase gene which faithfully reported the circadian rhythm (Yoo et al., 2004).

[3] = test system: U2OS cells expressing Per2-luciferase; test: Circadian rhythm of U2OS cells expressing Per2-luciferase; assay type: cell-based, human
[4] = applied from the beginning of the assay

Structure (SMILES) | Phenotype: phase of the circadian rhythm [1] | Phenotype: Period shortening [1, 4] | Phenotype: Period lengthening [1] | also measured
CC(C)c1[nH]n(-c2c(Cl)cccc2Cl)c2nc(Cc3ccc(OCCO)cc3)nc(=O)c1-2 [Cdk/crk inhibitor, 1-(2,6-dichlorophenyl)-6-[[4-(2-hydroxyethoxy)phenyl]methyl]-3-propan-2-yl-2H-pyrazolo[3,4-d]pyrimidin-4-one] | delay | Period shortening, 0.5 ± 0.074 h; phase | – | –
COc1cc2ncn(-c3cc(OCc4ccccc4S(C)(=O)=O)c(C#N)s3)c2cc1OC [Cay10576] | delay | Period shortening, 0.3 ± 0.060 h; phase | – | Phenotype: Period shortening ([1]; applied from the beginning of the assay, listed as Cayl0576): 0.3 h
CCc1cnn2c(NCc3ccc[n+]([O-])c3)cc(N3CCCC[C@H]3CCO)nc12 [Dinaciclib] | – | Period shortening, 0.6 ± 0.050 h; phase | – | Phenotype: Period shortening ([1]; applied from the beginning of the assay, listed as dinaciclib): 0.6 h; Increase of amplitude [1, 4]: 1.78 fold; Phase advance of SCN explants [2]: 2.488 ± 0.7391 h; Phase delay ([3]; applied at CT6, p<0.001, n=5): 7.543 ± 0.6185 h; Phase delay ([3]; applied at CT12, p<0.0001, n=5): 5.808 ± 0.5455 h; Phase delay ([3]; applied at CTO, p<0.01, n=5): 4.092 ± 0.9062 h; Phase advance ([3]; introduced at CT18): 1.7 ± 0.81 h
O=C(Nc1cc(C(F)(F)F)cc(C(F)(F)F)c1)c1cc(Cl)ccc1O [Ikk2 inhibitor v, N-[3,5-bis(trifluoromethyl)phenyl]-5-chloro-2-hydroxybenzamide] | – | – | Period lengthening, 1.84 ± 0.192 h | –
NC(=O)Nc1sc(-c2ccccc2)cc1C(N)=O [Ikk2 inhibitor vi, 2-[(aminocarbonyl)amino]-5-phenyl-3-thiophenecarboxamide] | – | – | Period lengthening, 1.25 ± 0.149 h | –
NC(=O)Nc1sc(-c2ccc(F)cc2)cc1C(N)=O [Ikk2 inhibitor iv, 2-(carbamoylamino)-5-(4-fluorophenyl)thiophene-3-carboxamide] | – | – | Period lengthening, 3.16 ± 0.167 h | –
